The source of these data is patent publication US10689354B2, “Aminoazole derivative” (Teijin Pharma Limited, priority 2015, dated 2020).

The test concerns the target T1, androgen receptor (AR-LBD) (Rattus norvegicus, UniProt P15207).
T1 construct: 5 μL of 2×AR-LBD/Fluoromone AL Red Complex contained in the kit; purchased Invitrogen
T1 sequence (P15207 651-882 limits assumed): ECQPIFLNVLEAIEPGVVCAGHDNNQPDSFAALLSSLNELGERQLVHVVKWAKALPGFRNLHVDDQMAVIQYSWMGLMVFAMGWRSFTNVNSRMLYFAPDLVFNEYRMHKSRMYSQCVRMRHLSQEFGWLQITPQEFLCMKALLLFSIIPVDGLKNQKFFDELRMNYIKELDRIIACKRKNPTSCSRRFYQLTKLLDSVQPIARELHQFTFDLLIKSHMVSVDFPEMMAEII
In words: Evaluation of androgen receptor affinity (PolarScreen Androgen Receptor Competitor Assay Kit, Red; fluorescence polarization). The settings on record: 22° C. for 5 hours, relative to binding rate of 1 μM DHT, read-out: AR affinity (pEC50) (converted). The procedure, abridged:
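FP competition: compound + AR-LBD/Fluoromone AL Red tracer complex, 22° C, 5 h. Reference 1 μM DHT binding rate; pEC50 by 4-parameter fit.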
Background: Polarisation of emitted light reports the rotation of a fluorescent probe.

As for `Cc1sc(N(Cc2ccccc2)c2ccccc2)nc1C(=O)NS(C)(=O)=O` [Compound 428, 2-(N-benzylanilino)-5-methyl-N-methylsulfonyl-thiazole-4-carboxamide], the EC50 was more than 2000 nM. In the case of `Cc1sc(N(Cc2ccccc2)c2ccc(C#N)cc2)nc1C(=O)NS(=O)(=O)CCN1CCOCC1` [Compound 429, 2-(N-benzyl-4-cyano-anilino)-5-methyl-N-(2-morpholinoethylsulfonyl)thiazole-4-carboxamide], the EC50 is more than 2000 nM. As for `Cc1sc(N(Cc2ccccc2)c2ccc(C#N)cc2)nc1C(=O)NS(=O)(=O)CCN1CCCCC1` [Compound 430, 2-(N-benzyl-4-cyano-anilino)-5-methyl-N-[2-(1-piperidyl)ethylsulfonyl]thiazole-4-carboxamide], the EC50 was more than 2000 nM. `Cc1sc(N(CC(=O)C2CCCCC2)c2ccc(C#N)cc2)nc1C(=O)NS(C)(=O)=O` [Compound 432, 2-(4-cyano-N-(2-cyclohexyl-2-oxo-ethyl)anilino)-5-methyl-N-methylsulfonyl-thiazole-4-carboxamide]: the EC50 is more than 2000 nM. In the case of `Cc1sc(N(CCCc2ccccc2)c2ccc(C#N)cc2)nc1C(=O)NS(C)(=O)=O` [Compound 433, 2-[4-cyano-N-(3-phenylpropyl)anilino]-5-methyl-N-methylsulfonyl-thiazole-4-carboxamide], the EC50 is more than 2000 nM. To `Cc1sc(N(CC(=O)c2ccccc2)c2ccc(C#N)cc2)nc1C(=O)NS(C)(=O)=O` [Compound 434, 2-(4-cyano-N-phenacyl-anilino)-5-methyl-N-methylsulfonyl-thiazole-4-carboxamide] belongs more than 2000 nM; to `Cc1ncc(CN(c2ccc(C#N)cc2)c2nc(C(=O)NS(C)(=O)=O)c(C)s2)s1` [Compound 435, 2-[4-cyano-N-[(2-methylthiazol-5-yl)methyl]anilino]-5-methyl-N-methylsulfonyl-thiazole-4-carboxamide], 631 nM; to `Cc1sc(N(CC2CCC2)c2ccc(C#N)cc2)nc1C(=O)NS(C)(=O)=O` [Compound 440, 2-[4-cyano-N-(cyclobutylmethyl)anilino]-5-methyl-N-methylsulfonyl-thiazole-4-carboxamide], 501 nM. To `Cc1sc(N(CCc2cccc3ccccc23)c2ccc(C#N)cc2)nc1C(=O)NS(C)(=O)=O` [Compound 441, 2-[4-cyano-N-[2-(1-naphthyl)ethyl]anilino]-5-methyl-N-methylsulfonyl-thiazole-4-carboxamide] belongs 251 nM. Regarding `COC(C)(C)CCN(c1ccc(C#N)cc1)c1nc(C(=O)NS(C)(=O)=O)c(C)s1` [Compound 444, 2-(4-cyano-N-(3-methoxy-3-methyl-butyl)anilino)-5-methyl-N-methylsulfonyl-thiazole-4-carboxamide], the EC50 was 1260 nM. To `Cc1cc(CN(c2ccc(C#N)cc2)c2nc(C(=O)NS(C)(=O)=O)c(C)s2)no1` [Compound 445, 2-[4-cyano-N-[(5-methylisoxazol-3-yl)methyl]anilino]-5-methyl-N-methylsulfonyl-thiazole-4-carboxamide] belongs 631 nM.

For the molecule `CC[C@H](C)CN(c1ccc(C#N)cc1)c1nc(C(=O)NS(C)(=O)=O)c(C)s1` [Compound 446, 2-(4-cyano-N-[(2S)-2-methylbutyl]anilino)-5-methyl-N-methylsulfonyl-thiazole-4-carboxamide], the EC50 is 316 nM.

With `C=CCCN(c1ccc(C#N)cc1)c1nc(C(=O)NS(C)(=O)=O)c(C)s1` [Compound 448, 2-(N-but-3-enyl-4-cyano-anilino)-5-methyl-N-methylsulfonyl-thiazole-4-carboxamide], the EC50 was 1260 nM. On to `Cc1sc(N(CCOC(C)C)c2ccc(C#N)cc2)nc1C(=O)NS(C)(=O)=O` [Compound 449, 2-[4-cyano-N-(2-isopropoxyethyl)anilino]-5-methyl-N-methylsulfonyl-thiazole-4-carboxamide], for which the EC50 was 398 nM. Consider `Cc1sc(N(CCn2ccnc2)c2ccc(C#N)cc2)nc1C(=O)NS(C)(=O)=O` [Compound 458, 2-[4-cyano-N-(2-imidazol-1-ylethyl)anilino]-5-methyl-N-methylsulfonyl-thiazole-4-carboxamide], for which the EC50 is more than 2000 nM. As to `Cc1sc(N(Cc2nc3ccccc3[nH]2)c2ccc(C#N)cc2)nc1C(=O)NS(C)(=O)=O` [Compound 460, 2-[N-(1H-benzimidazol-2-ylmethyl)-4-cyano-anilino]-5-methyl-N-methylsulfonyl-thiazole-4-carboxamide], the EC50 is 1260 nM. As to `Cc1sc(N(Cc2ccccc2)CC(O)c2ccccc2)nc1C(=O)NS(C)(=O)=O` (centres unmarked) [Compound 462, 2-[benzyl-(2-hydroxy-2-phenyl-ethyl)amino]-5-methyl-N-methylsulfonyl-thiazole-4-carboxamide], the EC50 is 1260 nM.

Turning to `Cc1sc(N(c2ccc(C#N)cc2)[C@H](CO)c2ccccc2)nc1C(=O)NS(C)(=O)=O` [Compound 467, 2-(4-cyano-N-[(1S)-2-hydroxy-1-phenyl-ethyl]anilino)-5-methyl-N-methylsulfonyl-thiazole-4-carboxamide], the EC50 is more than 2000 nM. Consider `Cc1sc(N(CC(O)c2ccccc2)c2ccc(C#N)cc2)nc1C(=O)NS(C)(=O)=O` (centres unmarked) [Compound 468, 2-(4-cyano-N-(2-hydroxy-2-phenyl-ethyl)anilino)-5-methyl-N-methylsulfonyl-thiazole-4-carboxamide], for which the EC50 is more than 2000 nM. Take `Cc1sc(N(CCc2cccc(N(C)C)c2)c2ccc(C#N)cc2)nc1C(=O)NS(C)(=O)=O` [Compound 475, 2-[4-cyano-N-[2-[3-(dimethylamino)phenyl]ethyl]anilino]-5-methyl-N-methylsulfonyl-thiazole-4-carboxamide]: the EC50 is 794 nM. `Cc1sc(N(C[Si](C)(C)c2ccccc2)c2ccc(C#N)cc2)nc1C(=O)NS(C)(=O)=O` [Compound 477, 2-[4-cyano-N-[[dimethyl(phenyl)silyl]methyl]anilino]-5-methyl-N-methylsulfonyl-thiazole-4-carboxamide]: the EC50 is more than 2000 nM.

As for `Cc1sc(N(CCc2ccc(N(C)C)cc2)c2ccc(C#N)cc2)nc1C(=O)NS(C)(=O)=O` [Compound 480, 2-[4-cyano-N-[2-[4-(dimethylamino)phenyl]ethyl]anilino]-5-methyl-N-methylsulfonyl-thiazole-4-carboxamide], the EC50 is more than 2000 nM. On to `Cc1sc(N(CCC2CCCN2C)c2ccc(C#N)cc2)nc1C(=O)NS(C)(=O)=O` (centres unmarked) [Compound 481, 2-[4-cyano-N-[2-(1-methylpyrrolidin-2-yl)ethyl]anilino]-5-methyl-N-methylsulfonyl-thiazole-4-carboxamide], for which the EC50 is more than 2000 nM.

For the molecule `Cc1sc(N(c2ccc(C#N)cc2)[C@@H](CO)c2ccccc2)nc1C(=O)NS(C)(=O)=O` [Compound 483, 2-(4-cyano-N-[(1R)-2-hydroxy-1-phenyl-ethyl]anilino)-5-methyl-N-methylsulfonyl-thiazole-4-carboxamide], the EC50 is more than 2000 nM. `Cc1sc(N(Cc2ncccc2OCc2ccccc2)c2ccc(C#N)cc2)nc1C(=O)NS(C)(=O)=O` [Compound 490, 2-[N-[(3-benzyloxy-2-pyridyl)methyl]-4-cyano-anilino]-5-methyl-N-methylsulfonyl-thiazole-4-carboxamide]: the EC50 is more than 2000 nM. `Cc1sc(N(Cc2ccc(OC(F)(F)F)cc2)c2ccc(C#N)cc2)nc1C(=O)NS(=O)(=O)CCCN1CCOCC1` [Compound 541, 2-[4-cyano-N-[[4-(trifluoromethoxy)phenyl]methyl]anilino]-5-methyl-N-(3-morpholinopropylsulfonyl)thiazole-4-carboxamide]: the EC50 is more than 2000 nM. The result for `Cc1sc(N(Cc2ccc(OCCO)cc2)c2ccc(C#N)cc2)nc1C(=O)NS(C)(=O)=O` [Compound 569, 2-[4-cyano-N-[[4-(2-hydroxyethoxy)phenyl]methyl]anilino]-5-methyl-N-methylsulfonyl-thiazole-4-carboxamide] reads 631 nM; that for `Cc1sc(N(Cc2ccc(OCC(=O)N(C)C)cc2)c2ccc(C#N)cc2)nc1C(=O)NS(C)(=O)=O` [Compound 570, 2-[4-cyano-N-[[4-[2-(dimethylamino)-2-oxo-ethoxy]phenyl]methyl]anilino]-5-methyl-N-methylsulfonyl-thiazole-4-carboxamide], 1260 nM; that for `Cc1sc(N(Cc2ccc(OCCN3CCOCC3)cc2)c2ccc(C#N)cc2)nc1C(=O)NS(C)(=O)=O` [Compound 572, 2-[4-cyano-N-[[4-(2-morpholinoethoxy)phenyl]methyl]anilino]-5-methyl-N-methylsulfonyl-thiazole-4-carboxamide], 1580 nM. Take `Cc1sc(N(Cc2ccc(OCC(=O)N3CCOCC3)cc2)c2ccc(C#N)cc2)nc1C(=O)NS(C)(=O)=O` [Compound 573, 2-[4-cyano-N-[[4-(2-morpholino-2-oxo-ethoxy)phenyl]methyl]anilino]-5-methyl-N-methylsulfonyl-thiazole-4-carboxamide]: the EC50 was 1260 nM. With `CNC(=O)COc1ccc(CN(c2ccc(C#N)cc2)c2nc(C(=O)NS(C)(=O)=O)c(C)s2)cc1` [Compound 574, 2-[4-cyano-N-[[4-[2-(methylamino)-2-oxo-ethoxy]phenyl]methyl]anilino]-5-methyl-N-methylsulfonyl-thiazole-4-carboxamide], the EC50 is more than 2000 nM. On to `Cc1sc(N(Cc2ccc(OCCN3CCCC3=O)cc2)c2ccc(C#N)cc2)nc1C(=O)NS(C)(=O)=O` [Compound 575, 2-[4-cyano-N-[[4-[2-(2-oxopyrrolidin-1-yl)ethoxy]phenyl]methyl]anilino]-5-methyl-N-methylsulfonyl-thiazole-4-carboxamide], for which the EC50 was 398 nM.
